One assay deals with T1, LCK (Homo sapiens, UniProt P06239).
T1 construct: purified full-length LCK
The assay can be described thus: SPR (Biacore 8K, protein on CM5 chip); also ITC. The format is binding. Particulars: PBS; value not in text.

Another assay has as its target T2, region LCK(240-509AAs) (Homo sapiens, UniProt P06239).
T2 construct: purified fragment 240-509 (kinase domain)
The assay can be described thus: SPR (Biacore 8K, protein on CM5 chip); also ITC. Particulars: PBS; value not in text; binding of this fragment inferred because it contains 330-509.

T1 sequence (P06239 whole entry): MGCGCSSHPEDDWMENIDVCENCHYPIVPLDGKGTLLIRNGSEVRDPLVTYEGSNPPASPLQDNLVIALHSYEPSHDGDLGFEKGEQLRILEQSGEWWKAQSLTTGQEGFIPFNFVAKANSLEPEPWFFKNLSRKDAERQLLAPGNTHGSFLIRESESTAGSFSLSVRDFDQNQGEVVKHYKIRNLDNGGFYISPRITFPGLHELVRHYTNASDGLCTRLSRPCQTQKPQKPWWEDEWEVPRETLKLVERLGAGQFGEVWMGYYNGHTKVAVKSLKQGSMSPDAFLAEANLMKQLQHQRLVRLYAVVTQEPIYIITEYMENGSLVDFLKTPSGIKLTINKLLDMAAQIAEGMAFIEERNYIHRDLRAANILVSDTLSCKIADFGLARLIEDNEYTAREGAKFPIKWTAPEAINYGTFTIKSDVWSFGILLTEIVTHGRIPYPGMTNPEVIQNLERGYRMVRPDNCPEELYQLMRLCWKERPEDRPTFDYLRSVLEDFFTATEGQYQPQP
T2 sequence (P06239 240-509): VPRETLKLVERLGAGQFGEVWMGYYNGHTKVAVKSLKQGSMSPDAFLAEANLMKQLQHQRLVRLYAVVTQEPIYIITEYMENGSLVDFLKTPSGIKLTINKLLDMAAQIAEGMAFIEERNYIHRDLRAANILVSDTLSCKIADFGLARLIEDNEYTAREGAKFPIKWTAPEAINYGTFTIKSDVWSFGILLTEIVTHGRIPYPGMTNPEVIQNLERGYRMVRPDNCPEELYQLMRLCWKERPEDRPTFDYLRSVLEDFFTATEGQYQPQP

With `O=P(O)(O)OC[C@H](O)CO` [G3P], the Kd entry at LCK is “we demonstrated the interaction of LCK and G3P using surface plasmon resonance (BIAcore) experiment”; at region LCK(240-509AAs) it was “BIAcore measurement of the interaction between G3P and the purified region”.

For the origin of these results see article PMC11758394, “VCP downstream metabolite glycerol-3-phosphate (G3P) inhibits CD8^+T cells function in the HCC microenvironment” (Signal Transduction and Targeted Therapy, 2025).
